Results on seven molecules are retold here after ChEMBL document CHEMBL2434845, “Design, synthesis and efficacy of novel G protein-coupled receptor kinase 2 inhibitors” (Eur J Med Chem, 2013).

As usually defined, the inhibition is the change of the read-out against control, counted positive when it falls. As usually defined, the IC50 is the concentration that gives 50% inhibition.

Series [1] addresses G protein-coupled receptor kinase 5 (Homo sapiens) (UniProt P34947). In words: Inhibition of GRK-5 (unknown origin)-mediated phosphorylation of rhodopsin in bovine-rod outer segment membranes incubated under white light condition for 15 mins measured after 30 mins by autoradiography in presence of [gamma32P]-ATP. In kind it is cell membranes. Further details: concentration or dose not given beside the values.

For series [2], the target named is T1, Beta-adrenergic receptor kinase 1 (Homo sapiens) (UniProt P25098).
T1 sequence (whole entry): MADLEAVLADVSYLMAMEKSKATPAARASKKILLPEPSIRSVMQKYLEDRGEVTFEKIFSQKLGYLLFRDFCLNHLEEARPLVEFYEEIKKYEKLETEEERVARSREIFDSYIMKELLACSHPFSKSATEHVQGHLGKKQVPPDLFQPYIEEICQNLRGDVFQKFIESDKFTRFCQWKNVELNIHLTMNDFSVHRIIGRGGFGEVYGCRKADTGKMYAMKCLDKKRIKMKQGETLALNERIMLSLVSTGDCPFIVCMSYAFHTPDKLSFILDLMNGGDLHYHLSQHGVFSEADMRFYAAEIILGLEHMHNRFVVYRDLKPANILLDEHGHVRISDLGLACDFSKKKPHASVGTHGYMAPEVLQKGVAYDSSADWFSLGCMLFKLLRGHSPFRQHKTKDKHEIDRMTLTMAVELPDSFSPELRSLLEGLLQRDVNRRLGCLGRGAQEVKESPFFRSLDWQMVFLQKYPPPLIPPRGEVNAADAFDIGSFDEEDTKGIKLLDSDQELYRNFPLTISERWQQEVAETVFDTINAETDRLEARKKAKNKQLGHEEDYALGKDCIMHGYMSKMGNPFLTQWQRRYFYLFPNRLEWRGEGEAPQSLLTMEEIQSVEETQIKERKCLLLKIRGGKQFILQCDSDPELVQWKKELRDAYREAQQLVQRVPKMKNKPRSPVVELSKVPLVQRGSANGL
In words: (§1) Inhibition of GRK-2 (unknown origin)-mediated phosphorylation of rhodopsin in bovine-rod outer segment membranes incubated under white light condition for 15 mins measured after 30 mins by autoradiography in presence of [gamma32P]-ATP. In kind it is cell membranes.

Series [3] deals with T1, Beta-adrenergic receptor kinase 1 (Homo sapiens). In words: Inhibition of GRK-2 (unknown origin)-mediated phosphorylation of rhodopsin in bovine-rod outer segment membranes at 1 uM incubated under white light condition for 15 mins measured after 30 mins by autoradiography in presence of [gamma32P]-ATP. In kind it is cell membranes.
For series [4] the target is unchanged. In words: Inhibition of GRK2 in HEK293 cells overexpressing human beta2 adrenergic receptor assessed as increase in beta2 adrenergic receptor density at 1 uM after 1 hr by gamma counting analysis in presence of [125I]cyanopindolol. The class given is cell-based.
The target is the same in series [5]. Kind of series: Inhibition of GRK2 in HEK293 cells overexpressing human beta2 adrenergic receptor assessed as effect on cAMP production at 1 uM after 1 hr by enzyme immunoassay. The class given is cell-based. A general note: cAMP levels reflect the balance of adenylyl cyclase and phosphodiesterase activity.
Series [6] shares this target. In words: Inhibition of GRK2 in HEK293 cells overexpressing human beta2 adrenergic receptor assessed as effect on isoproterenol-induced cAMP production at 1 uM preincubated for 1 hr prior to isoproterenol-stimulation measured after 15 mins by enzyme immunoassay. In kind it is cell-based.
Series [7] has as its system HEK293. Kind of series: Cellular uptake in HEK293 cells overexpressing human beta2 adrenergic receptor at 1 uM after 1 hr by confocal microscopic analysis. In kind it is ADME, cell-based. Conditions: hek293, 1 h.
Series [8] concerns the target T2, Beta-adrenergic receptor kinase 1 (Homo sapiens, UniProt P25098).
T2 sequence (P25098 whole entry): T1 sequence (whole entry)
The series is described as §1. In kind it is cell membranes.

The test system of series [9] is HEK293. Kind of series: Cellular uptake in HEK293 cells overexpressing human beta2 adrenergic receptor at 1 to 10 uM after 1 hr by fluorescence assay. The class given is ADME, cell-based. The following applies: hek293, 1 h.

Each structure is given as a SMILES string. The source made the active and inactive calls. No cut-off for these calls is given here. Peptide text beside a SMILES is read from it. A value given as a limit tells only on which side of the number the result lay.

Sequence of G protein-coupled receptor kinase 5 (Homo sapiens) (P34947 whole entry, looked up): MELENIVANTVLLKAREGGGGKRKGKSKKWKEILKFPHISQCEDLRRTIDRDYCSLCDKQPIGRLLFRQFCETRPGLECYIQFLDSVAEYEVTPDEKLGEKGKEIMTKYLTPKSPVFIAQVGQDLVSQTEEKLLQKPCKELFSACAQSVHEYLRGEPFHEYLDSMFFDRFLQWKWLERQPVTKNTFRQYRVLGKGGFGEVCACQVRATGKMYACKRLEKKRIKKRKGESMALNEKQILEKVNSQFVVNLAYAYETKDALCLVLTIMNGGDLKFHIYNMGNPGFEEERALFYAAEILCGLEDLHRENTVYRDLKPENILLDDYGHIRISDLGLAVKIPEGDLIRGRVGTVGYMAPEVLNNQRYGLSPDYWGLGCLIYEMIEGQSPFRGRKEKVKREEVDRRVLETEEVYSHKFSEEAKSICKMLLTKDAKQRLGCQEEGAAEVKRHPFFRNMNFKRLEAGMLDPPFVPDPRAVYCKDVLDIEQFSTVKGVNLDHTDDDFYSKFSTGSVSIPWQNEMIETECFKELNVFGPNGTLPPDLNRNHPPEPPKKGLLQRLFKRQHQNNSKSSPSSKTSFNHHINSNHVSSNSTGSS

For the molecule `CC[C@H](C)[C@H](NC(=O)[C@H](CO)NC(=O)[C@H](Cc1cnc[nH]1)NC(=O)[C@@H](CCCNC(=N)N)NC(=O)[C@H](CCCNC(=N)N)NC(=O)[C@H](CC(C)C)NC(=O)[C@H](CC(C)C)NC(=O)CN)C(=O)O`, the inhibition in [1] was < 5%; in series [2], “Dose-dependent effect”; in series [3], 49.6%. Further, the inhibition entry in series [4], in series [5] and in [6] was “Active” in each case.

Turning to `CC[C@H](C)[C@H](NC(=O)[C@H](CO)NC(=O)[C@H](Cc1cnc[nH]1)NC(=O)[C@@H](CCCN=C(N)N)NC(=O)[C@H](CCCN=C(N)N)NC(=O)[C@H](CC(C)C)NC(=O)[C@H](CC(C)C)NC(=O)CN)C(=O)O`, the Drug uptake result in the series on HEK293 [7] and with HEK293 [9] was “Active” in each case. In addition, the 50% inhibitory concentration (IC50) in series [8] was found to be 340 nM.

Turning to `CC(C)C[C@@H]1NC(=O)[C@H](CCCCN)NC(=O)[C@H](CC(=O)O)NC(=O)[C@H](Cc2cnc[nH]2)NC(=O)[C@@H](CCCNC(=N)N)NC(=O)[C@H](CCCNC(=N)N)NC(=O)[C@H](CC(C)C)NC1=O`, the inhibition in [1] was < 5%; in series [3] it was 36.3%.

As to `CC(C)C[C@@H]1NC(=O)CNC(=O)[C@H](CO)NC(=O)[C@H](Cc2cnc[nH]2)NC(=O)[C@@H](CCCNC(=N)N)NC(=O)[C@H](CCCNC(=N)N)NC(=O)[C@H](CC(C)C)NC1=O`, the inhibition was < 5% in [1] and 47.8% in [3].

For `CC(C)C[C@H](NC(=O)CN)C(=O)N[C@@H](CC(C)C)C(=O)N[C@@H](CCCNC(=N)N)C(=O)N[C@H](CCCNC(=N)N)C(=O)N[C@@H](Cc1cnc[nH]1)C(=O)N[C@@H](CO)C(=O)O`, the inhibition is < 5% in series [1] and 47.6% in series [3].

With `CC(C)C[C@@H]1NC(=O)[C@H](CC(C)C)NC(=O)[C@H](CCCCN)NC(=O)[C@H](CC(=O)O)NC(=O)[C@H](Cc2cnc[nH]2)NC(=O)CNC(=O)[C@H](CCCNC(=N)N)NC1=O` (cyclo(DKLLRGH)), the inhibition in series [1] was < 5%; in [3], 47.2%.

As to `CC[C@H](C)[C@@H]1NC(=O)[C@H](CO)NC(=O)[C@H](Cc2cnc[nH]2)NC(=O)[C@@H](CCCNC(=N)N)NC(=O)[C@H](CCCNC(=N)N)NC(=O)[C@H](CC(C)C)NC(=O)[C@H](CC(C)C)NC(=O)CNC1=O`, the inhibition in series [1] was < 5%; in series [3] it was 37.2%.
